Measured values as given in PubChem BioAssay (NCI).
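In this assay, cells in 96-well plates receive the compound at five concentrations for 48 hours. Endpoints are linearly interpolated between the surrounding concentrations. Definition used: TGI = concentration required for complete inhibition of growth.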

Columns and labels:
Assay in all cases: NCI-60 cell line screen, 48 h
786-0 renal = tested on: 786-0 renal
DU-145 prostate = tested on: DU-145 prostate
EKVX NSCLC = tested on: EKVX NSCLC
HT29 colon = tested on: HT29 colon
LOX IMVI melanoma = tested on: LOX IMVI melanoma
MDA-MB-231 breast = tested on: MDA-MB-231 breast
MDA-N = tested on: MDA-N
OVCAR-4 ovarian = tested on: OVCAR-4 ovarian
SK-MEL-28 melanoma = tested on: SK-MEL-28 melanoma
SK-OV-3 ovarian = tested on: SK-OV-3 ovarian
T-47D breast = tested on: T-47D breast

| Compound | TGI (786-0 renal) | TGI (DU-145 prostate) | TGI (EKVX NSCLC) | TGI (HT29 colon) | TGI (LOX IMVI melanoma) | TGI (MDA-MB-231 breast) | TGI (MDA-N) | TGI (OVCAR-4 ovarian) | TGI (SK-MEL-28 melanoma) | TGI (SK-OV-3 ovarian) | TGI (T-47D breast) |
| --- | --- | --- | --- | --- | --- | --- | --- | --- | --- | --- | --- |
| COC(=O)C(NC(=O)CSc1nnc(COc2ccc(Cl)cc2)n1-c1ccccc1)C(C)C (stereo not drawn) | 38.8 µM | > 100 µM | 73.1 µM | 44.5 µM | 88.1 µM | 35.1 µM | 32.1 µM | 74.1 µM | 51.6 µM | > 100 µM | 70.6 µM |
| C/C(=N\Nc1ccccc1)C(CN(C)C)C(c1ccccc1)c1c(O)c2ccccc2oc1=O (stereo not drawn) | > 100 µM | > 100 µM | > 100 µM | > 100 µM | > 100 µM | > 100 µM | > 100 µM | > 100 µM | > 100 µM | > 100 µM | > 100 µM |
| CC(=O)c1ccc(NC(=O)CSc2nc(C)nc3c2sc(=S)n3-c2ccccc2)cc1 | > 3.16 µM | > 3.16 µM | > 3.16 µM | > 3.16 µM | > 3.16 µM | > 3.16 µM | > 3.16 µM | > 3.16 µM | > 3.16 µM | > 3.16 µM | > 3.16 µM |
| Cc1ccc2c(c1)CC1(C2=O)[C@H](c2ccccc2)C2C(=O)c3ccc(C)cc3C2[C@H]1c1ccccc1 (stereo partly drawn) | > 100 µM | > 100 µM | > 100 µM | > 100 µM | > 100 µM | > 100 µM | > 100 µM | > 100 µM | > 100 µM | > 100 µM | > 100 µM |
| O=C1OI(C#Cc2ccccc2)c2ccccc21 | 11.2 µM | 23.4 µM | 9.67 µM | 20.1 µM | > 100 µM | > 55.3 µM | 30.6 µM | 12.3 µM | 21.2 µM | 26.1 µM | 10.8 µM |
| NC(=S)N/N=C\CC(O)(C(F)(F)F)C(F)(F)F | > 10 µM | > 10 µM | > 10 µM | > 10 µM | > 10 µM | > 10 µM | > 10 µM | > 10 µM | > 10 µM | > 10 µM | > 10 µM |
| CCN(CC)CCN(C)CCc1ccc(Br)cc1 | > 100 µM | > 100 µM | > 100 µM | > 100 µM | > 100 µM | > 100 µM | > 100 µM | > 100 µM | > 100 µM | > 100 µM | > 100 µM |
| CNc1ccc(Cl)cc1S(=O)(=O)c1ccccc1[N+](=O)[O-] | > 100 µM | > 100 µM | > 100 µM | > 100 µM | > 100 µM | > 100 µM | > 100 µM | > 100 µM | > 100 µM | > 100 µM | > 100 µM |
| COC1=CC(=O)C2=C(C1=O)[C@H]1CC[C@]3(C)[C@@H](OC(C)=O)CC[C@H]3[C@@H]1CC2 | > 100 µM | > 100 µM | 28.5 µM | 48.5 µM | 36.7 µM | 35.3 µM | > 100 µM | 30.6 µM | > 100 µM | > 100 µM | 49.4 µM |
| CCCNC(=O)CCC(C)[C@H]1CCC2C3C(C[C@H](OC(C)=O)[C@@]21C)[C@@]1(C)CCC2(C[C@H]1C[C@H]3OC(C)=O)OOC1(CCCCC1)OO2 (stereo partly drawn) | 6.53 µM | 3.36 µM | 3.95 µM | > 90.8 µM | 3.52 µM | 5.31 µM | 16.6 µM | 26.6 µM | > 100 µM | > 100 µM | 6.44 µM |
| O=C1CC2(CCNCC2)C(=O)N1N1CCOCC1 | > 100 µM | > 100 µM | > 100 µM | > 100 µM | > 100 µM | > 100 µM | > 100 µM | > 100 µM | > 100 µM | > 100 µM | > 100 µM |
| NC(=O)C1=CC2C3C=CC2(O)C(=O)OC3O1 (stereo not drawn) | 16 µM | 14.2 µM | 13.5 µM | 9.83 µM | 5.18 µM | 32 µM | 6.97 µM | 13.2 µM | 8.48 µM | 57.4 µM | 15.1 µM |
| COc1cccc(CN(C(=O)/C=C\Sc2ccccc2)C(C)(C)C)c1 | > 100 µM | > 100 µM | > 100 µM | > 100 µM | > 100 µM | > 100 µM | > 100 µM | > 100 µM | > 100 µM | > 100 µM | > 100 µM |
| CC(C)C1CC(CO)(CNc2cc(Cl)nc(N)n2)C1 (stereo not drawn) | > 100 µM | > 100 µM | > 100 µM | > 100 µM | > 100 µM | > 100 µM | > 100 µM | > 100 µM | > 100 µM | > 100 µM | 87.9 µM |
| O=[N+]([O-])/C=C/c1cn(CCCCCn2cc(/C=C/[N+](=O)[O-])c3ccccc32)c2ccccc12 | 1.35 µM | 7.25 µM | > 37.4 µM | 7.82 µM | 1.51 µM | 4.28 µM | 6.67 µM | 7.1 µM | 12.2 µM | > 93.5 µM | > 100 µM |
| COc1ccc(C=Nc2ccc(-c3nc4ccccc4[nH]3)cc2)cc1OC | > 100 µM | > 100 µM | > 100 µM | > 100 µM | > 100 µM | > 100 µM | > 100 µM | > 100 µM | > 100 µM | > 100 µM | > 100 µM |
| CC1(C)CCC2(C(=O)OC3OC(CO)C(O)C(O)C3O)CCC3(CO)C(=CCC4C5(C)CC(O)C(O)C(C)(C(=O)OC6OC(CO)C(O)C(O)C6O)C5CCC43C)C2C1 (stereo not drawn) | > 100 µM | > 100 µM | > 100 µM | > 100 µM | > 100 µM | > 100 µM | > 100 µM | > 100 µM | > 100 µM | > 100 µM | > 100 µM |

| Compound | TGI (786-0 renal) | TGI (DU-145 prostate) | TGI (EKVX NSCLC) | TGI (HT29 colon) | TGI (LOX IMVI melanoma) | TGI (MDA-MB-231 breast) | TGI (MDA-N) | TGI (OVCAR-4 ovarian) | TGI (SK-MEL-28 melanoma) | TGI (SK-OV-3 ovarian) | TGI (T-47D breast) |
| --- | --- | --- | --- | --- | --- | --- | --- | --- | --- | --- | --- |
| CC/C(Cl)=N\OC(=O)Nc1ccc(F)cc1F | 8.77 µM | 32.2 µM | 20.3 µM | 51.2 µM | 6.57 µM | 36.7 µM | 12.6 µM | 34.8 µM | 35.9 µM | 37.4 µM | 15.5 µM |
| COc1ccc(C(=O)c2ccc(-n3cc(/C=C/[N+](=O)[O-])c4ccccc43)cc2)cc1 | 11.2 µM | > 51.2 µM | 55 µM | 57.3 µM | 19.2 µM | 43.9 µM | > 58.9 µM | > 100 µM | > 89.2 µM | > 71.3 µM | 6.41 µM |
| COC(=O)c1ccc(/C=C2\CCc3ccccc3C2=O)cc1 | > 100 µM | > 100 µM | > 100 µM | > 100 µM | > 100 µM | > 100 µM | > 100 µM | > 100 µM | > 100 µM | > 100 µM | > 100 µM |
| O=S1(=O)CCN(c2ccccc2CC(c2c[nH]c3ccccc23)c2c[nH]c3ccccc23)CC1 | 27.8 µM | 35.4 µM | 55.7 µM | 23.3 µM | 11.6 µM | 25.1 µM | 18.2 µM | > 63.7 µM | 28.8 µM | > 79 µM | > 100 µM |
| C=C1CC(Cn2cc(Br)c(=O)[nH]c2=O)(c2ccc(-c3ccccc3)cc2)OC1=O (stereo not drawn) | 2.29 µM | 4.59 µM | 7.42 µM | 1.91 µM | 2.61 µM | 9 µM | 2.35 µM | 4.64 µM | 0.671 µM | 15.9 µM | 4.87 µM |
| O=C1/C(=C\c2cccc(Oc3ccccc3)c2)SC(c2ccccc2)N1c1cccc([N+](=O)[O-])c1 (stereo not drawn) | > 100 µM | > 100 µM | > 100 µM | > 100 µM | > 100 µM | > 100 µM | > 100 µM | > 100 µM | > 100 µM | > 100 µM | > 100 µM |
| CC(C)(C)OC(=O)N1CCc2c(n(C/C=C/c3ccccc3)[nH]c2=O)C1 | > 100 µM | > 100 µM | > 100 µM | > 100 µM | > 100 µM | > 100 µM | > 100 µM | > 100 µM | > 100 µM | > 100 µM | > 100 µM |
| CCCCCCOP(=O)(OCCCCCC)OC(C(=O)OC)C(F)(F)F (stereo not drawn) | > 100 µM | > 100 µM | > 100 µM | > 100 µM | > 100 µM | > 100 µM | > 100 µM | > 100 µM | > 100 µM | > 100 µM | > 100 µM |
| Cc1ccc(/C=C2\CN(C)CC3C2=NC(=S)NC3c2ccc(C)cc2)cc1 (stereo not drawn) | > 100 µM | > 100 µM | > 40.3 µM | > 100 µM | > 100 µM | > 100 µM | 80.5 µM | > 100 µM | > 100 µM | > 100 µM | 96.9 µM |
| COc1ccc(C2=C(OC(=O)N(C)C)c3cccn3-c3cc(Cl)ccc3S2)cc1 | > 10 µM | > 10 µM | > 10 µM | > 10 µM | > 10 µM | > 10 µM | > 10 µM | > 10 µM | > 10 µM | > 10 µM | > 10 µM |
| COc1ccc(-c2nc(-c3cnccn3)n(C3OC(CO)C(O)C(O)C3O)n2)cc1 (stereo not drawn) | > 100 µM | > 100 µM | > 100 µM | > 100 µM | > 100 µM | > 100 µM | > 100 µM | > 100 µM | > 100 µM | > 100 µM | > 100 µM |
| CC1(C)[C@@H]2CC[C@@]1(C)[C@H](O)[C@@H]2SCc1ccccc1 | 32.9 µM | 40.6 µM | 34.2 µM | 29.6 µM | 36.6 µM | 33 µM | 43.4 µM | 26.6 µM | 38.4 µM | 44.9 µM | 62.8 µM |
| CO[P@]1(=O)O[C@@H](c2ccccc2)[C@H](O)[C@@]1(O)c1ccccc1 | > 100 µM | > 100 µM | > 100 µM | > 100 µM | > 100 µM | > 100 µM | > 100 µM | > 100 µM | > 100 µM | > 100 µM | > 100 µM |
| O=P(O)(O)CN1CCNCCN(CP(=O)(O)O)CCNCC1 | > 100 µM | > 100 µM | > 100 µM | > 100 µM | > 100 µM | > 100 µM | > 100 µM | > 100 µM | > 100 µM | > 100 µM | > 100 µM |
| CC(=O)O[C@H]1C(=O)N(c2cc3c4ccccc4ccc3c3ccccc23)[C@@H]1c1ccccc1 | 15.9 µM | 43.9 µM | 74.2 µM | 6.98 µM | 33.1 µM | 48.2 µM | > 100 µM | 49.5 µM | 66.4 µM | 35.8 µM | 98.6 µM |
| CC1=C2C(=O)c3ccccc3C(=O)[C@H]2C[C@@H](N2CCCCCC2=O)O1 | 32.7 µM | 32.3 µM | 57 µM | 71.2 µM | 44.5 µM | 53.5 µM | 29.4 µM | 32.1 µM | 35.7 µM | > 100 µM | 42.3 µM |
